Results published in patent US6916933B2, “4-pyridinyl-n-acyl-l-phenylalanines” (Hoffman-La Roche Inc., priority 1999, dated 2005).

How the values were obtained:
[1] = target: T1, cell-surface VLA-4 (α4β1 integrin) on Ramos cells binding to immobilized VCAM-1 (Homo sapiens, UniProt P05556+P13612); assay: Ramos (VLA-4)/VCAM-1 Cell-Based Screening Assay (cell adhesion); settings: Calcein-AM labeled Ramos cells, VCAM-1 coated plates
T1 construct: Ramos cells bearing cell-surface VLA-4; endogenous in cells; host or cells: Ramos cells (VLA-4); VCAM-1 partner made in CHO cells
T1 sequence (P13612 34-1032): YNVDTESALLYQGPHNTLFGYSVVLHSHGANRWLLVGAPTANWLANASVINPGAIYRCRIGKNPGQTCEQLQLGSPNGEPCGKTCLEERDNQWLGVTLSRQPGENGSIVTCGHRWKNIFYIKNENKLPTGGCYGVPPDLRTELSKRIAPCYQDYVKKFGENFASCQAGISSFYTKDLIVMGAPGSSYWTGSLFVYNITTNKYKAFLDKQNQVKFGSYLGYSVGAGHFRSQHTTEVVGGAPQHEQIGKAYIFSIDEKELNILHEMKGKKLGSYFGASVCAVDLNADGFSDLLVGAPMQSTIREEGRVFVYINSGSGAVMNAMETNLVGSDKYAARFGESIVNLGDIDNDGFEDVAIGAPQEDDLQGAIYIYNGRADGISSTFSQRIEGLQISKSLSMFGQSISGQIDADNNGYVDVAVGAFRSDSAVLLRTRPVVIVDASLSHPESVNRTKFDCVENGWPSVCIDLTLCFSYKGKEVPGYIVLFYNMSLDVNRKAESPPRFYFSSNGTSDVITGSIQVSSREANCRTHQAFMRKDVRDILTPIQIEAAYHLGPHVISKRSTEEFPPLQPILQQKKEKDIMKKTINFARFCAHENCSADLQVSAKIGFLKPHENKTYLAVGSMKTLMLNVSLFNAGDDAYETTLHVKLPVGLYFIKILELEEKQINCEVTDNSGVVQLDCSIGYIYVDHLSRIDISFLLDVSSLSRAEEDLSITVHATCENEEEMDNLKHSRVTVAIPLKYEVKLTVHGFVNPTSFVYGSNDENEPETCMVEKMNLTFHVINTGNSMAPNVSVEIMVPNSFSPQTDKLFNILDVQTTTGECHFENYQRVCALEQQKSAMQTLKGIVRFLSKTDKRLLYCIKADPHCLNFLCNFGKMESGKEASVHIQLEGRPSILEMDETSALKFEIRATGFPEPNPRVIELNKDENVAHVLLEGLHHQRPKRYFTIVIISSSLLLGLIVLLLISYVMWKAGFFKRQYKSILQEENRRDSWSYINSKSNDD
T1 sequence (P05556 21-798): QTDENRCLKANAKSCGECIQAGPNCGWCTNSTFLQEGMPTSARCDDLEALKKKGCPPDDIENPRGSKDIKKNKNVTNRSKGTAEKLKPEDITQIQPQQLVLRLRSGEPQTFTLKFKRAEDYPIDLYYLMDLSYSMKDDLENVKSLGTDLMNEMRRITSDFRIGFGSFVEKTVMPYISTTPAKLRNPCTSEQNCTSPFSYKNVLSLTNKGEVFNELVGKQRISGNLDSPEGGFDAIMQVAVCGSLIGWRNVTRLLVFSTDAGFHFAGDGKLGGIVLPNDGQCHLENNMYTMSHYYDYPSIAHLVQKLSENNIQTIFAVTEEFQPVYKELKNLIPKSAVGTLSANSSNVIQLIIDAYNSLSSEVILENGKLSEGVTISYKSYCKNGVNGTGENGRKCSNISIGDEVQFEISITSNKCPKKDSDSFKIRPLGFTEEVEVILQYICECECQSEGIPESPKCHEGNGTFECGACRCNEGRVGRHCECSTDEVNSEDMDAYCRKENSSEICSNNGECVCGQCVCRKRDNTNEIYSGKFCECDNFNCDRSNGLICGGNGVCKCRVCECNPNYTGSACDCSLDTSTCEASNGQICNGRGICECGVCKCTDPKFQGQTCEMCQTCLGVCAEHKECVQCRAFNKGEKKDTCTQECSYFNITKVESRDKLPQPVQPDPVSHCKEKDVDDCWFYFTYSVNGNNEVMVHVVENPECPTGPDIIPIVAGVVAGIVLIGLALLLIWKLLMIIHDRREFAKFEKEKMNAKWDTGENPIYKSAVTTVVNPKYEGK
Description: Ramos (VLA-4)/VCAM-1 Cell-Based Screening Assay Protocol
Soluble recombinant human VCAM-1 (mixture of 5- and 7-Ig domain) was purified from CHO cell culture media by immunoaffinity chromatography and maintained in a solution containing 0.1 M Tris-glycine (pH 7.5), 0.1 M NaCl, 5 mM EDTA, 1 mM PMSF, […] NaN3 and 10 μg/mL leupeptin. Calcein-AM was purchased from Molecular Probes Inc.
VLA-4 (α4β1 integrin) antagonist activity, defined as ability to compete with cell-surface VLA-4 for binding to immobilized VCAM-1, was quantitated using a Ramos-VCAM-1 cell adhesion assay. Ramos cells bearing cell-surface VLA-4, were labeled with a fluorescent dye (Calcein-AM) and allowed to bind VCAM-1 in the presence or absence of test compounds. A reduction in fluorescence intensity associated with adherent cells (% inhibition) reflected competitive inhibition of VLA-4 mediated cell adhesion by the test compound.
Initially, this entailed coating 96 well plates (Nunc Maxisorp) with recombinant human VCAM-1 (100 ng in 100 μl PBS), sealing each plate and allowing the plates to stand at 4° C. for ≈18 hr. The VCAM-coated plates were subsequently washed twice with 0.05% Tween-20 in PBS, and then blocked for 1 hr (room temperature) with 200 μl of Blocking Buffer (1% BSA/0.02% thimerosal) to reduce non-specific binding. Following the incubation with Blocking Buffer, plates were inverted, blotted and the remaining buffer aspirated. Each plate was then washed with 300 μl PBS, inverted and the remaining PBS aspirated.
Test compounds were dissolved in 100% DMSO and then diluted 1:25 in VCAM Cell Adhesion Assay Buffer (4 mM CaCl2, 4 mM MgCl2 in 50 mM TRIS-HCl, pH 7.5) (final DMSO=4%). A series of eight 1:4 dilutions were performed for each compound (general concentration range of 1 nM-12,500 nM). 100 μl/well of each dilution was added to the VCAM-coated plates, followed by 100 μl of Ramos cells (200,000 cells/well in 1% BSA/PBS). Plates containing test compounds and Ramos cells were allowed to incubate for 45 min at room temperature, after which 165 μl/well PBS was added. Plates were inverted to remove non-adherent cells, blotted and 300 μL/well PBS added. Plates were again inverted, blotted and the remaining buffer gently aspirated. 100 μl Lysis Buffer (0.1% SDS in 50 mM TRIS-HCl, pH 8.5) was added to each well and agitated for 2 min on a rotary shaking platform. The plates were then read for fluorescence intensity on a Cytofluor 2300 (Millipore) fluorecence measurement system (excitation=485 nm, emission=530 nm).
The results are provided in the following Table II (A=IC50<100 nM, B=IC50<10000 nM, C=IC50<5,000 nM): […]

SMILES | IC50 [1] [µM] | melting point [°C]
Cc1cccc(Cl)c1C(=O)N[C@@H](Cc1ccc(-c2cccn(C)c2=O)cc1)C(=O)O [Example 30, N-[(2-chloro-6-methylphenyl)carbonyl]-4-(1-methyl-2-oxo-3-pyridinyl)-L-phenylalanine] | < 10 | 204 to 210
Cc1ccn(C)c(=O)c1-c1ccc(C[C@H](NC(=O)c2c(Cl)cccc2Cl)C(=O)O)cc1 [Example 31, N-[(2,6-dichlorophenyl)carbonyl]-4-(1,4-dimethyl-2-oxo-3-pyridinyl)-L-phenylalanine] | < 10 | –
Cc1cccc(Cl)c1C(=O)N[C@@H](Cc1ccc(-c2c(C)ccn(C)c2=O)cc1)C(=O)O [Example 32, N-[(2-chloro-6-methylphenyl)carbonyl]-4-(1,4-dimethyl-2-oxo-3-pyridinyl)-L-phenylalanine] | < 10 | –
Cc1cc(C(F)(F)F)c(-c2ccc(C[C@H](NC(=O)c3c(Cl)cccc3Cl)C(=O)O)cc2)c(=O)n1C [Example 33, N-[(2,6-dichlorophenyl)carbonyl]-4-[1,6-dimethyl-4-(trifluoromethyl)-2-oxo-3-pyridinyl]-L-phenylalanine] | < 0.1 | –
CCc1cccc(C)c1C(=O)N[C@@H](Cc1ccc(-c2c(C(F)(F)F)cc(C)n(C)c2=O)cc1)C(=O)O [Example 34, N-[(2-ethyl-6-methylphenyl)carbonyl]-4-[1,6-dimethyl-4-(trifluoromethyl)-2-oxo-3-pyridinyl]-L-phenylalanine] | < 10 | 219 to 221
Cc1cccc(C(C)C)c1C(=O)N[C@@H](Cc1ccc(-c2c(C(F)(F)F)cc(C)n(C)c2=O)cc1)C(=O)O [Example 35, N-[(2-(1-methylethyl)-6-methylphenyl)carbonyl]-4-[1,6-dimethyl-4-(trifluoromethyl)-2-oxo-3-pyridinyl]-L-phenylalanine] | < 10 | –
Cc1cccc(Cl)c1C(=O)N[C@@H](Cc1ccc(-c2c(C(F)(F)F)cc(C)n(C)c2=O)cc1)C(=O)O [Example 36, N-[(2-chloro-6-methylphenyl)carbonyl]-4-[1,6-dimethyl-4-(trifluoromethyl)-2-oxo-3-pyridinyl]-L-phenylalanine] | < 0.1 | 220 to 223
COCCC1(C(=O)N[C@@H](Cc2ccc(-c3c(C(F)(F)F)cc(C)n(C)c3=O)cc2)C(=O)O)CCCC1 [Example 37, N-[[1-(2-methoxyethyl)cyclopentyl]carbonyl]-4-[1,6-dimethyl-4-(trifluoromethyl)-2-oxo-3-pyridinyl]-L-phenylalanine] | < 10 | 181 to 183
